In US20200199647A1, “ASSAY FOR SCREENING MODULATORS OF HOLOPHOSPHATASE ACTIVITY” (UNITED KINGDOM RESEARCH AND INNOVATION, priority 2017, published 2020):

What was measured:
[1] = target: T1, PP1 (1 μM) in the presence of R15B (Homo sapiens, UniProt Q5SWA1); test: In vitro dephosphorylation of P-eIF2α using stoichiometric PP1c (1 μM) with R15B; type: biochemical; settings: 1 μM PP1c, 1 μM P-eIF2α, 30° C., 16 h; compound 100 μM
T1 construct: PPP1R15B amino acids 340-698 (R15B); His6 (C); made in house; host or cells: E. coli BL21 pLysS (R15B, eIF2α); E. coli BL21/pGro7 (PP1c)
Protocol: PP1c was diluted to the appropriate concentration (as indicated in the figure legends) in dephosphorylation buffer immediately prior to use. Dephosphorylation reactions were carried out by pre-incubating diluted PP1c in the presence or absence of regulatory subunits (either […]), and/or compounds (all at 100 μM, except for Salubrinal which was used at 30 μM), for 15′ at RT. All compounds were diluted in DMSO, and DMSO vehicle was used in all control experiments.
The reaction was initiated by the addition of 1 μM P-eIF2α or ^33P Phosphorylase a substrates and then incubated at 30° C. for 16 h with shaking at 350 rpm. Reactions were stopped by addition of 4× Laemmli sample buffer. eIF2α samples were analyzed by immunoblotting or Phos-tag gels. P-eIF2α dephosphorylation was analysed by immunoblotting using anti-Phospho-eIF2α (SerS1) (#9721) (Cell Signaling) and anti-eIF2α (ab26197) (AbCam) antibodies. Samples in FIG. 8 and FIG. 16 were run on a 15% SuperSep Phos-tag acrylamide gel (Alpha Laboratories) and visualized by staining with InstantBlue Protein Stain.
As previously reported (Connor et al., 2001), in vitro PP1c alone (1 μM) dephosphorylated eIF2α, and in vitro co-incubation with R15A had no effect in this assay (FIG. 1A). […]

[2] = system: HeLa cells; test: Cytoprotection of HeLa cells from Tunicamycin (ER) stress; type: cell-based; settings: 250 ng/ml Tunicamycin, 72 h
Protocol: HeLa cells (40,000 cells/ml) were plated in a 96-well plate and treated with different concentrations of compound, as indicated, or DMSO vehicle in the presence of 250 ng/ml Tunicamycin for 72 h. To monitor cell death, 1/2000 dilution of the CellTox green dye (Promega) was added to the media. The growth of the cells was monitored over time and pictures taken every 2 h with the IncuCyte ZOOM system and analysed by the IncuCyte ZOOM software (Essen BioScience). To compare different compounds and their cytoprotective effect, a growth ratio for each time point was calculated:
Growth ratio=(Phase confluency (%) at X hours)/(Phase confluency (%) at 0 hours)
The end point of the assay (72 h) was chosen for generating the graphs.

[3] = target: T2, R15A (Homo sapiens, UniProt O75807); test: Binding of R15A to biotinylated compounds on Streptavidin beads and elution
T2 construct: PPP1R15A amino acids 325-636 (R15A); His6 (C); made in house; host or cells: E. coli BL21 pLysS
Protocol: Purified R15A protein was diluted to 1 μM in IP buffer (50 mM Tris [pH 7.4], 150 mM NaCl, 0.1% Tween20, 10% glycerol). 1 μM R15A, in 100 μl volume, was pre-cleared with 25 μl of Pierce Streptavidin Magnetic Beads (ThermoFisher) for 1 h at 4° C. with rotation at 20 rpm. […] Samples were incubated for 3 h at 4° C. with rotation at 20 rpm. The supernatant was removed, and samples were thoroughly washed and transferred to a fresh Eppendorf. The beads were washed thoroughly with 5×1 ml interaction buffer, with 30 min incubation each time, and then resuspended with 50 μl of 4% SDS Laemmli sample buffer. Samples were run on 4-12% NuPAGE Bis-Tris gels (Life Technologies), and analysed by immunoblotting using α-MBP HRP (E8038) (NEB) (to reveal R15A). […] Samples were incubated for 10 min at 4° C. with 20 rpm rotation. 30 μl of supernatant was added to 10 μl of 16% SDS Laemmli sample buffer. 10 μl sample was run on 4-12% NuPAGE Bis-Tris gel (Life Technologies), and analysed by immunoblotting using α-MBP HRP (E8038) (NEB) (to reveal R15A).

T2 sequence (O75807 325-636, stated change not applied): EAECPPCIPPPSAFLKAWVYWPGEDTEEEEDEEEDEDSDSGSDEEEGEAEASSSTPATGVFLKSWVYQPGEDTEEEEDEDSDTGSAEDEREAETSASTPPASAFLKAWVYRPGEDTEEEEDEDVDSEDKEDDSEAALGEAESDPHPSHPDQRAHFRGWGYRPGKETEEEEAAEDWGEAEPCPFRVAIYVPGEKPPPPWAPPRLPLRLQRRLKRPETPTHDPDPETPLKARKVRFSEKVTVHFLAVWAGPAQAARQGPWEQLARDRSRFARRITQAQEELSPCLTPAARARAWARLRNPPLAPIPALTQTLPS
T1 sequence (Q5SWA1 340-698): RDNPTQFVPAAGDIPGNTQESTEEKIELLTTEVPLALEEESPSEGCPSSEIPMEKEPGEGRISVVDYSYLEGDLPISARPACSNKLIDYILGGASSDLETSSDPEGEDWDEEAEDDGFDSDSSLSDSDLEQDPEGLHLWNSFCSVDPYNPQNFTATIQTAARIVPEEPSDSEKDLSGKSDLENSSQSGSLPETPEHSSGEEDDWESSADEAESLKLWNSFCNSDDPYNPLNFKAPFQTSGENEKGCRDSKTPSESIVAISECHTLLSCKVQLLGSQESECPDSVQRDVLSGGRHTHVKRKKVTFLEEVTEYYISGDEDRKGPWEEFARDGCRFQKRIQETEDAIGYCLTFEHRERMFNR
T1 sequence (P62136 7-330 partner limits assumed): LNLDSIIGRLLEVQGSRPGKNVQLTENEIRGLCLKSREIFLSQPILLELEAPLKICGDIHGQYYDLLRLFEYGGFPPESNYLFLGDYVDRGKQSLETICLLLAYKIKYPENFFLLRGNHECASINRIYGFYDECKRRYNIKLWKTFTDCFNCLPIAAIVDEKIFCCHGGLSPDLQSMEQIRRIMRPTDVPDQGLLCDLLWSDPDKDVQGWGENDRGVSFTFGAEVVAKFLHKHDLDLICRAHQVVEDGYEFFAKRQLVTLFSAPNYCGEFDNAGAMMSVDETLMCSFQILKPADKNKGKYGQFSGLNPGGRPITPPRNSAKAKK

Structure (SMILES) | effect on dephosphorylation of eIF2α by PP1c with R15B [1] | cytoprotection from ER stress [2] | binding to R15A ([3]; 0.5 mM biotinylated compound on Streptavidin beads, 1 μM R15A) | nature of binding to R15A (elution with excess compound) ([3]; elution with 2 mM free compound)
NC(N)=N/N=C/c1cccc(Cl)c1Cl [Raphin1] | nor the selective inhibitor of R15B, Raphin1, had any measurable effects |  |  | 
N=C(N)N/N=C/c1c(Cl)cccc1Cl [Guanabenz] |  | Dose dependent cytoprotection | directly bind R15A | not covalent
